Results reported in PubChem BioAssay (NCI).
Values joined by “and” are separate entries in the source; they are usually repeats but may differ in a detail not shown here. Equal values may be shown once.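 Where inhibition never reached the appropriate level, the endpoint shown equals the highest concentration tested. Otherwise, values were interpolated linearly from a five-concentration, 48-hour dose response in 96-well plates. Abbreviation: GI50, concentration required for 50% inhibition of growth. At the TGI there is no net growth.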

Key:
Experiment in all cases: inhibition of tumour cell growth, NCI panel, 48 h
EKVX NSCLC = test system: EKVX NSCLC
HOP-62 NSCLC = test system: HOP-62 NSCLC
HT29 colon = test system: HT29 colon
IGROV1 ovarian = test system: IGROV1 ovarian
ACHN renal = test system: ACHN renal
SK-MEL-2 melanoma = test system: SK-MEL-2 melanoma
HS 578T breast = test system: HS 578T breast
MALME-3M melanoma = test system: MALME-3M melanoma
PC-3 prostate = test system: PC-3 prostate
RXF 393 renal = test system: RXF 393 renal

SMILES | TGI (EKVX NSCLC) | TGI (HOP-62 NSCLC) | TGI (HT29 colon) | TGI (IGROV1 ovarian) | TGI (ACHN renal) | TGI (SK-MEL-2 melanoma) | TGI (HS 578T breast) | TGI (MALME-3M melanoma) | TGI (PC-3 prostate) | TGI (RXF 393 renal) | GI50 (HS 578T breast)
Cc1ccc2oc3c(ccc(=O)n3C)c(=O)c2c1 | > 100 µM | > 100 µM | > 100 µM | > 100 µM | > 100 µM | > 100 µM | > 100 µM | > 100 µM | > 100 µM | > 100 µM | –
O=S(=O)(/N=C(\NO)Nc1ccc(Cl)cc1)c1cc(S(=O)(=O)c2ccccc2)cs1 | 35.4 µM | 33.5 µM | 47 µM | 44.9 µM | 42.3 µM | 45.9 µM | 54.8 µM | 28.5 µM | 33.9 µM | 31 µM | –
C=C(Cl)C(Cl)(CBr)CCC(Br)C(C)(C)Cl (stereo unspecified) | 7.36 µM and 4.19 µM and 12.8 µM | 1.84 µM and 2.01 µM and 2.76 µM | 2.19 µM and 1.94 µM and 2.1 µM | 27.2 µM and 26.9 µM and 53.1 µM | 2.62 µM and 2.63 µM and 3.13 µM | 4.17 µM | 5.25 µM and 5.08 µM and 9.16 µM | 31.9 µM and 21 µM and 30.8 µM | 2.42 µM and 2.17 µM and 3.02 µM | 3.92 µM and 0.991 µM and 4.49 µM | 0.802 µM
CC(C)(CC1(C)NC(=O)NC1=O)OCc1ccccc1 (stereo unspecified) | > 100 µM | > 100 µM | > 100 µM | > 100 µM | > 100 µM | > 100 µM | > 100 µM | > 100 µM | > 100 µM | > 100 µM | –
COc1cccc(Nc2nc(NS(=O)(=O)c3cc(C)c(Cl)cc3S)n[nH]2)c1 | > 100 µM | > 100 µM | > 100 µM | > 100 µM | > 100 µM | > 100 µM | > 100 µM | > 100 µM | > 100 µM | > 100 µM | –
O=C(O)c1ccccc1CC(Cc1ccccc1)C(=O)O (stereo unspecified) | > 100 µM | > 100 µM | > 100 µM | > 100 µM | > 100 µM | > 100 µM | > 100 µM | > 100 µM | > 100 µM | > 100 µM | –
Cn1c(SCc2c[nH]c3ccccc23)nnc1-c1ccc(Cl)cc1Cl | 49.6 µM | 21.4 µM | 35.5 µM | 67.2 µM | 96.8 µM | 36.2 µM | > 100 µM | 45.8 µM | 36.5 µM | 32.5 µM | –
COc1cccc(N2C(=O)C3CC(CC(C)(C)C)c4c([nH]c5ccccc45)C3C2=O)c1 (stereo unspecified) | > 10 µM | > 10 µM | > 10 µM | > 10 µM | > 10 µM | > 10 µM | 9.87 µM | > 10 µM | > 10 µM | > 10 µM | –
N#Cc1c(N)nc2n[nH]c(N)c2c1-c1ccccc1 | 55 µM | 63.9 µM | 57.7 µM | 13.4 µM | 28.9 µM | 12.8 µM | 24.2 µM | 22 µM | 35.5 µM | 13.2 µM | –
CCOC(=O)[C@@H]1C[C@@H]1c1ccc(O)c(O)c1 | > 100 µM | > 100 µM | > 100 µM | > 100 µM | > 100 µM | 68.8 µM | > 100 µM | > 100 µM | > 100 µM | 54 µM | –
CCOc1cc2c(cc1O)CC[C@@H]1[C@@H]2CC[C@]2(C)[C@@H](O)CC[C@@H]12 | 48 µM | 15.1 µM | 17.4 µM | 56.1 µM | > 96.1 µM | 64.8 µM | > 82.8 µM | 50 µM | 40.8 µM | 0.816 µM | –
CCCCCC(/C=C/[C@@H]1[C@@H](C(O)CCCCCC(=O)OC)C(=O)C[C@H]1O[Si](C)(C)C(C)(C)C)OCOCCOC (stereo partly specified) | 37.6 µM | 31.6 µM | 18.8 µM | 20.9 µM | 28.6 µM | 32.4 µM | 27.2 µM | 30.6 µM | 27.4 µM | 39.8 µM | –
Cc1ccc(C=C(C(=O)O)C(=O)O)o1 | > 100 µM | > 100 µM | > 100 µM | > 100 µM | > 100 µM | > 100 µM | > 100 µM | > 100 µM | > 100 µM | > 100 µM | –
COc1ccc2c(C(=O)c3c(C)n(CCN4CCOCC4)c4ccccc34)cccc2c1 | > 100 µM | > 100 µM | 64 µM | > 100 µM | > 100 µM | 55.9 µM | 40.6 µM | 80.7 µM | 96.6 µM | 91.2 µM | –
Cc1cc(/N=C/c2ccc(Cl)cc2)n(-c2ccccc2)n1 | > 100 µM | > 100 µM | > 100 µM | > 100 µM | > 100 µM | > 100 µM | > 100 µM | > 100 µM | > 100 µM | 77.1 µM | –
Cc1cc(NS(=O)(=O)c2ccc(NC(=O)c3ccc4nc5ccccc5c(Nc5ccc(S(=O)(=O)Nc6cc(C)on6)cc5)c4c3)cc2)no1 | > 50 µM | > 50 µM | > 50 µM | > 50 µM | > 50 µM | > 50 µM | > 50 µM | > 50 µM | > 50 µM | > 50 µM | –
CC1=NNC(=O)[C@H]2[C@H]1CCC1[C@@H]2CC[C@]2(C)[C@@H](O)CC[C@@H]12 (stereo partly specified) | > 100 µM | > 100 µM | > 100 µM | > 100 µM | > 100 µM | > 100 µM | > 100 µM | > 100 µM | > 100 µM | > 100 µM | –
CCCCOc1ccc(S(=O)(=O)/N=C(\N)Nc2ccc(Cl)cc2)cc1 | 23.2 µM | 44.2 µM | 35.2 µM | 28.9 µM | 27.7 µM | 31.6 µM | 40.2 µM | 28.5 µM | 31 µM | 32.3 µM | –
